Reference: US10696707B2, “Polyene macrolide derivative” (Shionogi & Co., Ltd., priority 2014, dated 2020)
Like-named read-outs stand apart in the source and are kept apart here.

Test system: red blood cells (5% RBC suspension)
Test: Test Example 2-1: in vitro hemolytic activity test (upper limit 50, 80, 100 or 200 μmol/L)
Type: cell-based
Details: 5% RBC suspension, 37° C., one hour, read-out: hemolysis IC50
Method: Nephrotoxic potentials of the compounds of the present invention except the compounds whose X is —N(R^F)—CO—X^1 and X^1 is the group represented by formula (III) and T is —N(R^a5)— were investigated by in vitro hemolytic activity test under the condition, in that, the upper limit was 50 μmol/L, 80 μmol/L, 100 μmol/L, or 200 μmol/L as the required concentration to 50% of hemolysis (IC50).
Defibrinated sterile blood was centrifuged at 700×g for 3 minutes and, and the supernatant was removed for 100% of red blood cells. After the cleaning with physiological saline, the washed blood cells was suspended in the medium (Earle's balanced salt sodium, bicarbonate, 0.1 g/L L-glutamine without phenol red), and was diluted by 5% (5% RBC suspension).
The washed blood was diluted by 5% in water for injection (solution of complete hemolysis), and was used as the indication of optical density for complete hemolysis.
The compounds of the present invention solution in DMSO (several and doubling dilutions starting from 2.5 mmol/L, 4 mmol/L, 5 mmol/L, or 10 mmol/L), DMSO as the negative control, and Amphotericin B as the positive control were used, and each 5 μL of these was added in to a well of V-form 96 well type microplate.
Finally, the maximum concentration of the compounds of the present invention solution in DMSO was 50 μmol/L, 80 μmol/L, 100 μmol/L, or 200 μmol/L by adding 245 μL of the medium or 5% RBC suspension into the well.
Two hundred fifty μL of the solution of complete hemolysis was added into another well and the microplate was incubated at 37° C. in 5% of CO2 concentration for an hour.
After the incubation, each 100 μL of supernatants in wells was collected by centrifugation of the microplate at 300×g for 5 minutes and was located on a well of flat-form 96 well type microplate. An absorbance of each supernatant was measured at wavelength of 540 nm.
Percent hemolysis was calculated by using the followed equation. The required concentration to 50% of hemolysis (IC50) was calculated based on the percent hemolysis. […] Hemolysis (%)=(CR−VM)×100÷(VL−VR) Where:
CR: Absorbance of 5% RBC suspension incubated with the compounds of the present invention solution in DMSO
VM: Absorbance of medium incubated with the compounds of the present invention solution in DMSO
VL: Absorbance of solution of complete hemolysis
VR: Absorbance of 5% RBC suspension incubated with DMSO
The “hemolysis method” in the table means any tests the upper concentration of above IC50 are 50 μmol/L, 80 μmol/L, 100 μmol/L or 200 μmol/L. The “>50”, “>80”, “>100” or “>200” in the table means above IC50 value exceeded the each upper concentration.

[1] = hemolysis method 80 (upper concentration 80 μmol/L)
[2] = hemolysis method 100 (upper concentration 100 μmol/L)
[3] = hemolysis method 50 (upper concentration 50 μmol/L)

SMILES | IC50 [1] | further results
C[C@@H]1[C@H](O)[C@@H](C)/C=C/C=C/C=C/C=C/C=C/C=C/C=C/[C@H](O[C@@H]2O[C@H](C)[C@@H](O)[C@H](N)[C@@H]2O)C[C@@H]2O[C@](O)(C[C@@H](O)C[C@@H](O)[C@H](O)CC[C@@H](O)C[C@@H](O)CC(=O)O[C@H]1C)C[C@H](O)[C@H]2NC(=O)N1CCC(N(C)C)C1 (single isomer, unassigned) [I-49] | > 80 µM | –
C[C@@H]1[C@H](O)[C@@H](C)/C=C/C=C/C=C/C=C/C=C/C=C/C=C/[C@H](O[C@@H]2O[C@H](C)[C@@H](O)[C@H](N)[C@@H]2O)C[C@@H]2O[C@](O)(C[C@@H](O)C[C@@H](O)[C@H](O)CC[C@@H](O)C[C@@H](O)CC(=O)O[C@H]1C)C[C@H](O)[C@H]2NC(=O)N1CCC(N(C)C)C1 (single isomer, unassigned) [I-50] | > 80 µM | –
C[C@@H]1[C@H](O)[C@@H](C)/C=C/C=C/C=C/C=C/C=C/C=C/C=C/[C@H](O[C@@H]2O[C@H](C)[C@@H](O)[C@H](N)[C@@H]2O)C[C@@H]2O[C@](O)(C[C@@H](O)C[C@@H](O)[C@H](O)CC[C@@H](O)C[C@@H](O)CC(=O)O[C@H]1C)C[C@H](O)[C@H]2NC(=O)NCCc1c[nH]cn1 [I-5] | – | IC50 (Erythrocyte, 1 h, hemolysis method 100 (upper concentration 100 μmol/L)): 94 µM
C[C@@H]1[C@H](O)[C@@H](C)/C=C/C=C/C=C/C=C/C=C/C=C/C=C/[C@H](O[C@@H]2O[C@H](C)[C@@H](O)[C@H](N)[C@@H]2O)C[C@@H]2O[C@](O)(C[C@@H](O)C[C@@H](O)[C@H](O)CC[C@@H](O)C[C@@H](O)CC(=O)O[C@H]1C)C[C@H](O)[C@H]2NC(=O)NC(CO)Cc1c[nH]cn1 (stereo partly shown) [I-6] | – | IC50 [2]: 75 µM
C[C@@H]1[C@H](O)[C@@H](C)/C=C/C=C/C=C/C=C/C=C/C=C/C=C/[C@H](O[C@@H]2O[C@H](C)[C@@H](O)[C@H](N)[C@@H]2O)C[C@@H]2O[C@](O)(C[C@@H](O)C[C@@H](O)[C@H](O)CC[C@@H](O)C[C@@H](O)CC(=O)O[C@H]1C)C[C@H](O)[C@H]2NC(=O)NCCCN(C)C [I-7] | – | IC50 [2]: 81 µM
C[C@@H]1[C@H](O)[C@@H](C)/C=C/C=C/C=C/C=C/C=C/C=C/C=C/[C@H](O[C@@H]2O[C@H](C)[C@@H](O)[C@H](N)[C@@H]2O)C[C@@H]2O[C@](O)(C[C@@H](O)C[C@@H](O)[C@H](O)CC[C@@H](O)C[C@@H](O)CC(=O)O[C@H]1C)C[C@H](O)[C@H]2NC(=O)NCCCN1CCOCC1 [I-8] | – | IC50 [2]: 96 µM
C[C@@H]1[C@H](O)[C@@H](C)/C=C/C=C/C=C/C=C/C=C/C=C/C=C/[C@H](O[C@@H]2O[C@H](C)[C@@H](O)[C@H](N)[C@@H]2O)C[C@@H]2O[C@](O)(C[C@@H](O)C[C@@H](O)[C@H](O)CC[C@@H](O)C[C@@H](O)CC(=O)O[C@H]1C)C[C@H](O)[C@H]2NC(=O)NCCn1cncn1 [I-9] | – | IC50 [2]: > 100 µM
C[C@@H]1[C@H](O)[C@@H](C)/C=C/C=C/C=C/C=C/C=C/C=C/C=C/[C@H](O[C@@H]2O[C@H](C)[C@@H](O)[C@H](N)[C@@H]2O)C[C@@H]2O[C@](O)(C[C@@H](O)C[C@@H](O)[C@H](O)CC[C@@H](O)C[C@@H](O)CC(=O)O[C@H]1C)C[C@H](O)[C@H]2NC(=O)N(C)C [I-10] | – | IC50 [2]: > 100 µM
C[C@@H]1[C@H](O)[C@@H](C)/C=C/C=C/C=C/C=C/C=C/C=C/C=C/[C@H](O[C@@H]2O[C@H](C)[C@@H](O)[C@H](N)[C@@H]2O)C[C@@H]2O[C@](O)(C[C@@H](O)C[C@@H](O)[C@H](O)CC[C@@H](O)C[C@@H](O)CC(=O)O[C@H]1C)C[C@H](O)[C@H]2NC(=O)NCCOCCOCCO [I-11] | – | IC50 [3]: > 50 µM
C[C@@H]1[C@H](O)[C@@H](C)/C=C/C=C/C=C/C=C/C=C/C=C/C=C/[C@H](O[C@@H]2O[C@H](C)[C@@H](O)[C@H](N)[C@@H]2O)C[C@@H]2O[C@](O)(C[C@@H](O)C[C@@H](O)[C@H](O)CC[C@@H](O)C[C@@H](O)CC(=O)O[C@H]1C)C[C@H](O)[C@H]2NC(=O)NCCc1ccccn1 [I-15] | > 80 µM | –
C[C@@H]1[C@H](O)[C@@H](C)/C=C/C=C/C=C/C=C/C=C/C=C/C=C/[C@H](O[C@@H]2O[C@H](C)[C@@H](O)[C@H](N)[C@@H]2O)C[C@@H]2O[C@](O)(C[C@@H](O)C[C@@H](O)[C@H](O)CC[C@@H](O)C[C@@H](O)CC(=O)O[C@H]1C)C[C@H](O)[C@H]2NC(=O)N1CCN(c2ccccc2)CC1 [I-17] | > 80 µM | –
C[C@@H]1[C@H](O)[C@@H](C)/C=C/C=C/C=C/C=C/C=C/C=C/C=C/[C@H](O[C@@H]2O[C@H](C)[C@@H](O)[C@H](N)[C@@H]2O)C[C@@H]2O[C@](O)(C[C@@H](O)C[C@@H](O)[C@H](O)CC[C@@H](O)C[C@@H](O)CC(=O)O[C@H]1C)C[C@H](O)[C@H]2NC(=O)N1CCOCCOCCOCCOCCOCC1 [I-18] | > 80 µM | –
C[C@@H]1[C@H](O)[C@@H](C)/C=C/C=C/C=C/C=C/C=C/C=C/C=C/[C@H](O[C@@H]2O[C@H](C)[C@@H](O)[C@H](N)[C@@H]2O)C[C@@H]2O[C@](O)(C[C@@H](O)C[C@@H](O)[C@H](O)CC[C@@H](O)C[C@@H](O)CC(=O)O[C@H]1C)C[C@H](O)[C@H]2NC(=O)NCC(F)(F)F [I-21] | > 80 µM | –
C[C@@H]1[C@H](O)[C@@H](C)/C=C/C=C/C=C/C=C/C=C/C=C/C=C/[C@H](O[C@@H]2O[C@H](C)[C@@H](O)[C@H](N)[C@@H]2O)C[C@@H]2O[C@](O)(C[C@@H](O)C[C@@H](O)[C@H](O)CC[C@@H](O)C[C@@H](O)CC(=O)O[C@H]1C)C[C@H](O)[C@H]2NC(=O)N1CCCCC1c1ccccc1 (stereo partly shown) [I-22] | > 80 µM | –
C[C@@H]1[C@H](O)[C@@H](C)/C=C/C=C/C=C/C=C/C=C/C=C/C=C/[C@H](O[C@@H]2O[C@H](C)[C@@H](O)[C@H](N)[C@@H]2O)C[C@@H]2O[C@](O)(C[C@@H](O)C[C@@H](O)[C@H](O)CC[C@@H](O)C[C@@H](O)CC(=O)O[C@H]1C)C[C@H](O)[C@H]2NC(=O)N1CCCN(CCCN2CCOCC2)CC1 [I-23] | 79 µM | –
C[C@@H]1[C@H](O)[C@@H](C)/C=C/C=C/C=C/C=C/C=C/C=C/C=C/[C@H](O[C@@H]2O[C@H](C)[C@@H](O)[C@H](N)[C@@H]2O)C[C@@H]2O[C@](O)(C[C@@H](O)C[C@@H](O)[C@H](O)CC[C@@H](O)C[C@@H](O)CC(=O)O[C@H]1C)C[C@H](O)[C@H]2NC(=O)N1CCN(CCCOc2ccccc2)CC1 [I-24] | > 80 µM | –
C[C@@H]1[C@H](O)[C@@H](C)/C=C/C=C/C=C/C=C/C=C/C=C/C=C/[C@H](O[C@@H]2O[C@H](C)[C@@H](O)[C@H](N)[C@@H]2O)C[C@@H]2O[C@](O)(C[C@@H](O)C[C@@H](O)[C@H](O)CC[C@@H](O)C[C@@H](O)CC(=O)O[C@H]1C)C[C@H](O)[C@H]2NC(=O)NCCCC(=O)O [I-38] | – | IC50 [3]: > 50 µM
C[C@@H]1[C@H](O)[C@@H](C)/C=C/C=C/C=C/C=C/C=C/C=C/C=C/[C@H](O[C@@H]2O[C@H](C)[C@@H](O)[C@H](N)[C@@H]2O)C[C@@H]2O[C@](O)(C[C@@H](O)C[C@@H](O)[C@H](O)CC[C@@H](O)C[C@@H](O)CC(=O)O[C@H]1C)C[C@H](O)[C@H]2NC(=O)N(CCO)CCO [I-39] | > 80 µM | –
C[C@@H]1[C@H](O)[C@@H](C)/C=C/C=C/C=C/C=C/C=C/C=C/C=C/[C@H](O[C@@H]2O[C@H](C)[C@@H](O)[C@H](N)[C@@H]2O)C[C@@H]2O[C@](O)(C[C@@H](O)C[C@@H](O)[C@H](O)CC[C@@H](O)C[C@@H](O)CC(=O)O[C@H]1C)C[C@H](O)[C@H]2NC(=O)NC1CC1 [I-41] | – | IC50 (Erythrocyte, 1 h, hemolysis method 50 (upper concentration 50 μmol/L)): > 50 µM
C[C@@H]1[C@H](O)[C@@H](C)/C=C/C=C/C=C/C=C/C=C/C=C/C=C/[C@H](O[C@@H]2O[C@H](C)[C@@H](O)[C@H](N)[C@@H]2O)C[C@@H]2O[C@](O)(C[C@@H](O)C[C@@H](O)[C@H](O)CC[C@@H](O)C[C@@H](O)CC(=O)O[C@H]1C)C[C@H](O)[C@H]2NC(=O)NC1CCN(C)CC1 [I-48] | > 80 µM | –
C[C@@H]1[C@H](O)[C@@H](C)/C=C/C=C/C=C/C=C/C=C/C=C/C=C/[C@H](O[C@@H]2O[C@H](C)[C@@H](O)[C@H](N)[C@@H]2O)C[C@@H]2O[C@](O)(C[C@@H](O)C[C@@H](O)[C@H](O)CC[C@@H](O)C[C@@H](O)CC(=O)O[C@H]1C)C[C@H](O)[C@H]2NC(=O)NCCN(C)C [I-51] | > 80 µM | –
C[C@@H]1[C@H](O)[C@@H](C)/C=C/C=C/C=C/C=C/C=C/C=C/C=C/[C@H](O[C@@H]2O[C@H](C)[C@@H](O)[C@H](N)[C@@H]2O)C[C@@H]2O[C@](O)(C[C@@H](O)C[C@@H](O)[C@H](O)CC[C@@H](O)C[C@@H](O)CC(=O)O[C@H]1C)C[C@H](O)[C@H]2NC(=O)NCC[N+](C)(C)C [I-53] | > 80 µM | –
